Assay [1] deals with VE cadherin in HUVEC cells. As to the kind of experiment: Immunostaining of VE cadherin in HUVEC cells. The class given is cell-based, human. To be noted: LPS 1 μg/ml + UNC0642 2.5 nM, 24 hours. Here is the method: HUVEC cells were seeded onto Lab-Tek II Chamber slide system at 1×10^6 cells/ml and grown to confluency. At 80-95% confluency they were treated with either the vehicle, LPS (1 μg/ml), LPS (1 μg/ml)+UNC0642 (2.5 nM) or UNC0642 (2.5 nM) for 24 hours. Then the following steps for immunostaining were performed • 1. Fixed the cells in 4% formaldehyde in warm PBS for 20 minutes at room temperature • 2. Aspirated the fixative • 3. Washed 3 times in PBS, 5 minutes each • 4. Blocked in blocking buffer for 2 hours at room temperature • 5. Aspirated the blocking buffer • 6. Added primary antibody VE cadherin (monoclonal VE Cad; cell signalling 2500S) at a dilution of 1:200 and incubated overnight at 4° C. • 7. Washed 3 times in PBS, 10 minutes each • 8. Added secondary antibody (goat anti-rabbit IgG Alexa Fluor 568; 1:1000 and Alexa Fluor 488 phalloidin; 1:1,000) and incubated for 2 hours at room temperature. • 9. Washed the cells 3 times in PBS, 10 minutes each at room temperature and mounted with a cover slip in 4′,6-diamidino-2-phenylindole (DAPI) Vectashield.
Images were taken with a Zeiss™ confocal microscope. […] (FIG. 10)

In assay [2] the target is T1, active human EHMT2/G9a protein fragment (Homo sapiens, UniProt Q96KQ7).
T1 construct: active human EHMT2/G9a protein fragment (ab80323); purchased ab80323
T1 sequence (Q96KQ7 785-1210 limits assumed): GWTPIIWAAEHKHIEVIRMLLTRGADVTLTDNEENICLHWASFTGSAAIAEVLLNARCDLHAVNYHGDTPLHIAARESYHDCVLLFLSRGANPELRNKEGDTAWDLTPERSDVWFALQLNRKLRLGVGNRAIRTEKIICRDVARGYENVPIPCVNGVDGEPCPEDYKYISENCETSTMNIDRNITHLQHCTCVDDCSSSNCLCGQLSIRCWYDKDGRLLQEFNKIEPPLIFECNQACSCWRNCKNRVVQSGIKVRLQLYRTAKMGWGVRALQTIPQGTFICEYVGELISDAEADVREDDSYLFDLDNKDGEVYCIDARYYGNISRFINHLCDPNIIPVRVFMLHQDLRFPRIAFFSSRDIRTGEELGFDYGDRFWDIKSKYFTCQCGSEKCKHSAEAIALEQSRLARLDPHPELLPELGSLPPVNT
The assay is described as follows: G9a inhibitor in vitro histone methyltransferase assay. The assay is classed as biochemical. An excerpt: The commercially available Histone H3 (K9) Methyltransferase Activity Quantification Assay Kit (ab113453) was used for this assay and a modified protocol was adopted. Briefly, the histone substrate is stably captured on the strip wells. Uninhibited G9a methyltransferase (active human EHMT2/G9a protein fragment (ab80323)) will transfer a methyl group to histone H3 substrate from Adomet to methylate the substrate at lysine 9. The methylated histone H3K9 can be recognized with a high-affinity antibody. The ratio or amount of methylated H3K9, which is directly proportional to enzyme activity, can be quantified through HRP-conjugated secondary antibody color development system. In the presence of inhibitors of G9a methyltransferase, this reaction will be inhibited. […] The color should change to yellow and absorbance can be read on a microplate reader at 450 nm within 2-15 minutes.
G9a activity or inhibition was calculated as follows: plot OD value versus amount of G9a Standard and determine the slope. […]

The test system of assay [3] is LPS-induced vascular leakage. As to the kind of experiment: Vascular leakage (leaked red blood cells in tailfin) in LPS-treated zebrafish larvae. The class given is in vivo. Here is the method: An LPS induced zebrafish sepsis model which mimics the hallmarks of human sepsis was developed (Philip et al., 2017). Zebrafish show varied susceptibility and responsiveness to LPS from different bacterial strains. Exposure of zebrafish larvae at 3 days post-fertilization (dpf) to two types of LPS (LPS from Escherichia coli 0111:B4 (Sigma) at 100 μg/ml for 5-6 hrs; or LPS from Salmonella at 27 μg/ml for 24 hrs) were both effective in inducing tail fin swelling, increased ROS production, increased vascular leakage and increased mortality.
3 dpf Tg (flk1:GFP; gata-1:Dsred) double transgenic larvae were exposed to Vehicle, LPS (100 μg/ml) or LPS+1 μM UNC0642 by static immersion for 6 h at 28.5° C. to induce endothe-lial dysfunction and the resulting leakage of red blood cells. The larvae were then imaged using a Leica fluorescence microscope (Leica Microsystems, Wetzlar, Germany). Red blood cells that leaked out into the tailfin region were quantified.
3 dpf larvae were exposed to LPS by immersion technique. […] Control larvae were exposed to egg water. Survival numbers were recorded and EC50s calculated. The percentage (%) of embryos showing vascular leakage was also recorded and 1050s calculated.

Consider 1 compound from US11998549B2, “Methods of treating a vascular leakage-associated disease or disorder” (UNITY HEALTH TORONTO, priority 2019, dated 2024).

As to `COc1cc2c(NC3CCN(C(C)C)CC3)nc(N3CCC(F)(F)CC3)nc2cc1OCCCN1CCCC1` [UNC0642, 2-(4,4-Difluoropiperidin-1-yl)-6-methoxy-N-[1-(propan-2-yl)piperidin-4-yl]-7-(3-(pyrrolidin-1-yl)propoxy]quinazolin-4-amine], the “LPS-caused decrease in level and patterning of VE cadherin” value in assay [1] is “partially rescued”. Further, the G9a methyltransferase activity entry in assay [2] is “inhibits G9a methyltransferase activity in a dose dependent manner”. The LPS-induced vascular leakage result in assay [3] (3 dpf larvae, LPS 100 μg/ml + 1 μM UNC0642, 6 h, leaked red blood cells at tail fin) is “significantly reduced”. For the same compound, the “Rescue of sepsis-associated vascular leakage” value in assay [3] (comparison of UNC0642 and A366, zebrafish larvae, 27 μg/ml LPS, 24 h) was “able to rescue”.
